Read-outs that look alike come from different tables or passages of the source.
How the values were obtained:
[1] = test system: vena cave inferior of the rat (film of fibrin); assay: fibrinolytic activity, procedure of TODD adapted to the vena cave inferior of the rat; assay type: in vivo; details: for change in vivo at 10 mg/kg: ip, 40 min, read-out: Fibrinolytic index in % (average increase in fibrinolytic effect compared with control animals); for fibrinolytic index: 100 mg/kg
Description: Forschumg, 20, 358, 1970. […]
Male rats weighing 150 to 200 g. and having fasted for 24 hours were divided into two groups. The animals of one group were given the above-indicated dose of the compound to be tested. […] After 40 minutes, the treated animals were sacrificed simultaneously with the control animals, the veins immediately removed, rinsed with physiological salt solution, frozen and cut into pieces having a thickness of 20 microns. On each piece, a film of fibrin was formed by the application of a bovine fibrinogenous solution, rich in plasminogen, and of a thrombin solution.
All the preparations were then fixed with a 10% solution of neutral formol, stained with haematoxylin of Harris and covered with gelatine.
Value = 0: The film of fibrin was intact.
Value = 1: The lysis zones in the endothelium were disseminated.
Value = 2:The lysis zones were larger and more or less joined.
Value = 3:The fibrin in contact with the endothelium was almost completely decomposed.
The fibrinolytic index represents the average of the values of the reactions obtained for each incubation.

[2] = acute toxicity in the rat; details: rat, in vivo
Description: (§1) A certain number of toxicity tests were also carried out on rats and mice and in particular acute toxicity tests.

[3] = test system: carragheenin oedema; assay: JANSSEN test, carragheenin-induced paw oedema in the rat; assay type: in vivo; details: for ED50: 3 h, read-out: AD50 (amount of compound required to ensure a 50% reduction of the oedema); for anti-inflammatory activity (in words): in vivo
Description: The anti-inflammatory activity of the compounds of the invention was determined on the rat by means of the JANSSEN test involving the use of carragheenin as inflammatory agent.
Into the plantar aponeurosis of the back paws of a group of female rats 0.05 ml. of a 1 % suspension of carragheenin was injected one hour after the compound to be tested had been administered by oral route. The size of the paw was measured by plethysmograph both before and three hours after administration of the carragheenin. The anti-inflammatory activity was calculated as the percentage of reduction of the resulting oedema as compared with control animals which had received the same dose of carragheenin without any anti-inflammatory agent. The AD50 was taken as the amount of compound required to ensure a 50% reduction of the oedema.

[4] = test system: rats; assay: acute toxicity in the rat; details: compared with indomethacin and/or phenylbutazone
Description: as §1

[5] = acute toxicity in the mouse; details: in vivo, seven days of observation
[6] = in vivo; details: rat, in vivo
Description: (§2) As another means of evaluating the utility of the compounds of the invention as anti-inflammatory agents in comparison with the three substances indicated above, trials were carried out on fasting rats in order to determine the degree to which the compounds studied produced gastric ulcers in the animals so treated.

[7] = test system: gastric ulcers; assay: in vivo; details: for irritant (ulcer-producing) action relative to Compound A: fasting rats, gastric ulcers, times as irritant as Compound A
Description: as §2

[8] = 10 mg/kg, intraperitoneal, rat, 40 minutes

CN(C)CCCn1c(-c2ccc(F)cc2)c(C(=O)c2cccnc2)c2ccccc21 [[1-γ-dimethylaminopropyl-2-(4-fluoro-phenyl)-3-indolyl] (3-pyridyl) ketone]
change in vivo at 10 mg/kg ([1]; Rattus norvegicus): 75%

CC(C)c1c(C(=O)c2cccnc2)c2ccccc2n1CCN1CCCCC1 [piperidinoethyl / isopropyl / 3-pyridyl, (1-β-piperidinoethyl-2-isopropyl 3-indolyl) (3-pyridyl) ketone]
change in vivo at 10 mg/kg ([1]; Rattus norvegicus): 77%

CC(C)c1[nH]c2ccccc2c1C(=O)c1ccncc1 [(2-isopropyl-3-indolyl)(4-pyridyl) ketone, reference compound]
change in vivo at 10 mg/kg [1, 8]: 10%

CC(C)c1c(C(=O)c2ccccn2)c2ccccc2n1CCCN1CCCCC1 [(1-γ-piperidinopropyl-2-isopropyl-3-indolyl) (2-pyridyl) ketone]
change in vivo at 10 mg/kg ([1]; Rattus norvegicus): 123%

CC(C)c1c(C(=O)c2ccccn2)c2ccccc2n1CCN(C)C [(1-β-dimethylaminoethyl-2-isopropyl-3-indolyl) (2-pyridyl) ketone]
change in vivo at 10 mg/kg ([1]; Rattus norvegicus): 21%

CN(C)CCCn1c(-c2ccccc2)c(C(=O)c2ccccn2)c2ccccc21 [(1-γ-dimethylaminopropyl-2-phenyl-3-indolyl) (2-pyridyl) ketone]
change in vivo at 10 mg/kg ([1]; Rattus norvegicus): 46%

O=C(c1ccncc1)c1c(-c2ccc(Cl)cc2)n(CCN2CCCCC2)c2ccccc12 [[1-β-piperidinoethyl-2-(4-chloro-phenyl)-3-indolyl] (4-pyridyl) ketone]
change in vivo at 10 mg/kg ([1]; Rattus norvegicus): 50%

O=C(c1cccnc1)c1c(-c2ccccc2)[nH]c2ccccc12 [(2-phenyl-3-indolyl)(3-pyridyl) ketone, reference compound]
fibrinolytic index ([1]; rat): 20%

CCCc1c(C(=O)c2ccccn2)c2ccccc2n1CCN(C)C [(1-β-dimethylaminoethyl-2-n-propyl-3-indolyl) (2-pyridyl) ketone]
change in vivo at 10 mg/kg ([1]; Rattus norvegicus): 50%

CCCc1c(C(=O)c2ccccn2)c2ccccc2n1CCCN(C)C [(1-γ-dimethylaminopropyl-2-n-propyl-3-indolyl) (2-pyridyl) ketone]
change in vivo at 10 mg/kg ([1]; Rattus norvegicus): 66%

CN(C)CCn1c(-c2ccccc2)c(C(=O)c2cccnc2)c2ccccc21 [(1-β-dimethylaminoethyl-2-phenyl-3-indolyl) (3-pyridyl) ketone]
change in vivo at 10 mg/kg ([1]; Rattus norvegicus): 96%

CC(C)c1c(C(=O)c2ccncc2)c2ccccc2n1CCCN(C)C [(1-γ-dimethylaminopropyl-2-isopropyl-3-indolyl) (4-pyridyl) ketone]
change in vivo at 10 mg/kg ([1]; Rattus norvegicus): 30%

CC(C)c1c(C(=O)c2ccncc2)c2ccccc2n1CCN(C)C [(1-β-dimethylaminoethyl-2-isopropyl-3-indolyl) (4-pyridyl) ketone]
change in vivo at 10 mg/kg ([1]; Rattus norvegicus): 44%

CC(C)c1c(C(=O)c2cccnc2)c2ccccc2n1CCCN(C)C [(1-γ-dimethylaminopropyl-2-isopropyl-3-indolyl) (3-pyridyl) ketone]
LD50 ([2]; po): > 2000 mg/kg

CC(C)c1c(C(=O)c2cccnc2)c2ccccc2n1C [Compound A, (1-methyl-2-isopropyl-3-indolyl) (3-pyridyl) ketone]
ED50 ([3]; Rattus norvegicus, po): 15 mg/kg | LD50 ([2]; ip): 425 mg/kg | LD50 ([2]; po): 2400 mg/kg | toxicity (in words) [4]: less toxic than both indomethacin and phenylbutazone | LD50 at 168 h ([5]; ip, intraperitoneal route): 3250 mg/kg | LD50 at 168 h ([5]; po, intragastric route): 900 mg/kg | selectivity ratio [6]: 20 | distance of irritant dose from anti-inflammatory dose (in words) ([7]; compared with indomethacin, phenylbutazone or acetylsalicylic acid): irritant dose is much farther removed from the anti-inflammatory dose

CC(C)c1c(C(=O)c2ccncc2)c2ccccc2n1C [methyl / isopropyl / 4-pyridyl, (1-methyl-2-isopropyl-3-indolyl) (4-pyridyl) ketone]
change in vivo at 10 mg/kg [1, 8]: 165%

CN(C)CCCn1c(-c2ccccc2)c(C(=O)c2cccnc2)c2ccccc21 [(1-γ-dimethylaminopropyl-2-phenyl-3-indolyl) (3-pyridyl) ketone]
change in vivo at 10 mg/kg ([1]; Rattus norvegicus): 46%

CC(C)c1c(C(=O)c2ccccn2)c2ccccc2n1C [methyl / isopropyl / 2-pyridyl, (1-methyl-2-isopropyl-3-indolyl) (2-pyridyl) ketone]
change in vivo at 10 mg/kg [1, 8]: 105%

CN(C)CCn1c(-c2ccc(F)cc2)c(C(=O)c2cccnc2)c2ccccc21 [[1-β -dimethylaminoethyl-2-(4-fluoro-phenyl)-3-indolyl] (3-pyridyl) ketone]
change in vivo at 10 mg/kg ([1]; Rattus norvegicus): 90%

CN(C)CCn1c(-c2ccc(Cl)cc2)c(C(=O)c2ccncc2)c2ccccc21 [[1-β-dimethylaminoethyl-2-(4-chloro-phenyl)-3-indolyl] (4-pyridyl) ketone]
change in vivo at 10 mg/kg ([1]; Rattus norvegicus): 42%

CN(C)CCn1c(-c2ccc(F)cc2)c(C(=O)c2ccncc2)c2ccccc21 [[1-β-dimethylaminoethyl-2-(4-fluoro-phenyl)-3-indolyl] (4-pyridyl) ketone]
change in vivo at 10 mg/kg ([1]; Rattus norvegicus): 50%

COc1ccc(-c2c(C(=O)c3ccncc3)c3ccccc3n2CCN(C)C)cc1 [[1-β-dimethylaminoethyl-2-(4-methoxy-phenyl)-3-indolyl] (4-pyridyl) ketone]
change in vivo at 10 mg/kg ([1]; Rattus norvegicus): 42%

CN(C)CCn1c(-c2ccccc2)c(C(=O)c2ccccn2)c2ccccc21 [(1-β-dimethylaminoethyl-2-phenyl-3-indolyl) (2-pyridyl) ketone]
change in vivo at 10 mg/kg ([1]; Rattus norvegicus): 50%

CCCc1[nH]c2ccccc2c1C(=O)c1ccccn1 [(2-n-propyl-3-indolyl)(2-pyridyl) ketone, reference compound]
fibrinolytic index ([1]; rat): 2%

COc1ccc(-c2c(C(=O)c3ccccn3)c3ccccc3n2CCN(C)C)cc1 [[1-β-dimethylaminoethyl-2-(4-methoxy-phenyl)-3-indolyl] (2-pyridyl) ketone]
change in vivo at 10 mg/kg ([1]; Rattus norvegicus): 45%

CC(C)c1c(C(=O)c2cccnc2)c2ccccc2n1CCN(C)C [(1-β-dimethylaminoethyl-2-isopropyl-3-indolyl) (3-pyridyl) ketone]
change in vivo at 10 mg/kg ([1]; Rattus norvegicus): 24%

CC(C)c1c(C(=O)c2cccnc2)c2ccccc2n1CCCN1CCCCC1 [(1-γ-piperidinopropyl-2-isopropyl-3-indolyl) (3-pyridyl) ketone]
change in vivo at 10 mg/kg ([1]; Rattus norvegicus): 18%

COc1ccc2c(c1)c(CC(=O)O)c(C)n2C(=O)c1ccc(Cl)cc1 [Indomethacin]
ED50 ([3]; Rattus norvegicus, po): 4 mg/kg | anti-inflammatory activity (in words) ([3]; rat): more powerful anti-inflammatory agent than Compound A | LD50 ([2]; po): 22.5 mg/kg | selectivity ratio [6]: 1.3 | irritant (ulcer-producing) action relative to Compound A [7]: sixty

COc1ccc(-c2c(C(=O)c3cccnc3)c3ccccc3n2CCN(C)C)cc1 [[1-β-dimethylaminoethyl-2-(4-methoxy-phenyl)-3-indolyl] (3-pyridyl) ketone]
change in vivo at 10 mg/kg ([1]; Rattus norvegicus): 133%

CC(=O)Oc1ccccc1C(=O)O [Acetylsalicylic acid]
ED50 ([3]; Rattus norvegicus, po): 110 mg/kg | anti-inflammatory activity (in words) ([3]; rat): less active than Compound A | selectivity ratio [6]: 2 | irritant (ulcer-producing) action relative to Compound A [7]: one-and-a-half

CCCCC1C(=O)N(c2ccccc2)N(c2ccccc2)C1=O [Phenylbutazone]
ED50 ([3]; oral, rat, one hour before carragheenin, oedema measured three hours after): 22 mg/kg | anti-inflammatory activity (in words) ([3]; rat): less active than Compound A

CCCn1c(C(C)C)c(C(=O)c2cccnc2)c2ccccc21 [n-propyl / isopropyl / 3-pyridyl, (1-n-propyl-2-isopropyl-3-indolyl) (3-pyridyl) ketone]
change in vivo at 10 mg/kg ([1]; Rattus norvegicus): 25%

CN(C)CCn1c(-c2ccc(Cl)cc2)c(C(=O)c2cccnc2)c2ccccc21 [[1-β-dimethylaminoethyl-2-(4-chloro-phenyl)-3-indolyl] (3-pyridyl) ketone]
change in vivo at 10 mg/kg ([1]; Rattus norvegicus): 40%

CC(C)c1[nH]c2ccccc2c1C(=O)c1cccnc1 [(2-isopropyl-3-indolyl) (3-pyridyl) ketone, reference compound]
change in vivo at 10 mg/kg [1, 8]: 5%

From US4012394A, “Indole derivatives” (Labaz, priority 1973, dated 1977)
